Earlier results on one compound are cited in patent publication US7393522B2, “Physiologically balanced, ionized, acidic solution and methodology for use in wound healing” (NovaBay Pharmaceuticals, Inc., priority 2000, dated 2008).

For the data set the following is noted: pH 5.0 to pH 8.0.

Consider `OCl` [HOCl, hypochlorous acid], for which the “pH of maximum decomposition rate” value is 6.89.
